Holding throughout (assay type): cell-based
Assay [1] deals with explants of Corylus avellana. Nature of the assay: callus induction from explants of Corylus avellana. Conditions: for CALLUS INDUCTION 15 days Leaves (%) / CALLUS INDUCTION 30 days Leaves (%): C. avellana leaves; for CALLUS INDUCTION 15 days Seeds (%) / CALLUS INDUCTION 30 days Seeds (%): C. avellana seeds; for CALLUS INDUCTION 15 days Stems (%) / CALLUS INDUCTION 30 days Stems (%): C. avellana stems. Here is the method: (§1) Therefore, in vitro cultures of plant tissues were prepared using leaves, stems and seeds of Corylus avellana (hazel) and of Taxus baccata. Both species used derive from land cultivations in Piedmont and Liguria.
(§2) The plant material was first sterilised, immersing it in a 5% NaClO solution for 20 minutes, and then washed with sterile distilled water three times.
(§3) The plant parts were fragmented and transferred into sterile Petri dishes containing MS solid medium at a concentration of 4.3 g/l, containing vitamins (1 ml/l), sucrose (20 g/l), agar (10 g/l) and phytohormones at different concentrations, all previously sterilised in an autoclave at 121° C. for 15 minutes.
(§4) In the preparation of cultures in vitro 2,4-dichlorophenoxyacetic acid (2,4-D), naphthaleneacetic acid (NAA), benzyladenine (BA) were used as phytohormones, in the following combinations and concentrations: • 2,4-D 1 mg/l • 2,4-D 0.5 mg/l • BA 1 mg/l • BA 0.5 mg/l • 2,4-D 0.5 mg/l+BA 1 mg/l • 2,4-D 1 mg/l+BA 0.5 mg/l • NAA 2 mg/l • NAA 2 mg/l+BA 0.5 mg/l Callus Induction
(§5) For each type of plant tissue (leaf, stem, seed) and for each species (taxus, hazel) at least 96 dishes were prepared: 12 dishes for each hormone concentration or combination. The dishes containing the plant material were kept inside a phytochamber, in the dark and at a constant temperature of 26° C.
(§6) The fragments were transferred, every 15 days, into new dishes with fresh medium containing the corresponding starting hormone or mixture of hormones. After 15 and 30 days from the culturing of the hazel differentiated tissue explants, the formation of the callus was evaluated. The formation of the callus for the taxus was evaluated at 30 and at 60 days, since before then the callus was not clear.

For assay [2], the system named is callus of Corylus avellana. In words: regeneration of callus (formation of young plants), Corylus avellana. Conditions: about three months from culturing.
Assay [3] relates to callus of Taxus baccata. In words: regeneration of callus (formation of young plants), Taxus baccata. Conditions: about three months from culturing.
Assay [4] deals with explants of Taxus baccata. Nature of the assay: callus induction from explants of Taxus baccata. Conditions: for CALLUS INDUCTION 30 days Leaves (%) / CALLUS INDUCTION 60 days Leaves (%): T. baccata leaves; for CALLUS INDUCTION 30 days Seeds (%) / CALLUS INDUCTION 60 days Seeds (%): T. baccata seeds; for CALLUS INDUCTION 30 days Stems (%) / CALLUS INDUCTION 60 days Stems (%): T. baccata stems. As for the experimental part: as §1, §2, §3, §4, §5, §6

`O=C(O)Cc1cccc2ccccc12` [NAA, naphthaleneacetic acid]: in assay [1] (hormone 2 mg/l), the “CALLUS INDUCTION 15 days Leaves (%)” value is listed as 8.3%, the “CALLUS INDUCTION 30 days Leaves (%)” value came to 22.1%, the “CALLUS INDUCTION 15 days Seeds (%)” value was found to be 4.4% and the “CALLUS INDUCTION 30 days Seeds (%)” value stood at 41.3%. Besides, in assay [1] (hormone 2 mg/l), the “CALLUS INDUCTION 15 days Stems (%)” value was determined as 8.3% and the “CALLUS INDUCTION 30 days Stems (%)” value is 5.4%. For the same compound, in assay [2] (hormone 2 mg/l), the “FORMATION OF YOUNG PLANTS (%) C. avellana” value turned out to be 14.4%. For the same compound, the “FORMATION OF YOUNG PLANTS (%) T. baccata” value in assay [3] (hormone 2 mg/l) amounted to 1%. In addition, in assay [4] (hormone 2 mg/l), the “CALLUS INDUCTION 30 days Leaves (%)” value came to 23.8%, the “CALLUS INDUCTION 60 days Leaves (%)” value came to 33.0%, the “CALLUS INDUCTION 30 days Seeds (%)” value was determined as 28.0% and the “CALLUS INDUCTION 60 days Seeds (%)” value turned out to be 52.0%. In assay [4] (hormone 2 mg/l), the “CALLUS INDUCTION 30 days Stems (%)” value was found to be 55.0% and the “CALLUS INDUCTION 60 days Stems (%)” value is 56.3%.

Take `O=C(O)COc1ccc(Cl)cc1Cl` [2,4-D, 2,4-dichlorophenoxyacetic acid]: in assay [1] (hormone 0.5 mg/l), the “CALLUS INDUCTION 15 days Leaves (%)” value is on record as 40.8%, the “CALLUS INDUCTION 30 days Leaves (%)” value is listed as 41.86%, the “CALLUS INDUCTION 15 days Seeds (%)” value worked out at 27.7% and the “CALLUS INDUCTION 30 days Seeds (%)” value is 61.6%. In assay [1] (hormone 0.5 mg/l), the “CALLUS INDUCTION 15 days Stems (%)” value is reported as 30.5% and the “CALLUS INDUCTION 30 days Stems (%)” value turned out to be 75.0%. In addition, in assay [1] (hormone 1 mg/l), the “CALLUS INDUCTION 15 days Leaves (%)” value is listed as 35.3%, the “CALLUS INDUCTION 30 days Leaves (%)” value came to 35.5%, the “CALLUS INDUCTION 15 days Seeds (%)” value was 28.3% and the “CALLUS INDUCTION 30 days Seeds (%)” value is recorded as 56.2%. For the same compound, in assay [1] (hormone 1 mg/l), the “CALLUS INDUCTION 15 days Stems (%)” value is given as 25.0% and the “CALLUS INDUCTION 30 days Stems (%)” value was 68.5%. Besides, the “FORMATION OF YOUNG PLANTS (%) C. avellana” value in assay [2] (hormone 0.5 mg/l) stood at 15.8%. Also, in assay [2] (hormone 1 mg/l), the “FORMATION OF YOUNG PLANTS (%) C. avellana” value was 15.5%. For the same compound, in assay [3] (hormone 0.5 mg/l), the “FORMATION OF YOUNG PLANTS (%) T. baccata” value is 0%. For the same compound, the “FORMATION OF YOUNG PLANTS (%) T. baccata” value in assay [3] (hormone 1 mg/l) is on record as 0%. In addition, in assay [4] (hormone 0.5 mg/l), the “CALLUS INDUCTION 30 days Leaves (%)” value is 10.9%, the “CALLUS INDUCTION 60 days Leaves (%)” value was 63.8%, the “CALLUS INDUCTION 30 days Seeds (%)” value is 17.4% and the “CALLUS INDUCTION 60 days Seeds (%)” value was found to be 43.7%. Moreover, in assay [4] (hormone 0.5 mg/l), the “CALLUS INDUCTION 30 days Stems (%)” value was found to be 46.8% and the “CALLUS INDUCTION 60 days Stems (%)” value turned out to be 65.8%. In addition, in assay [4] (hormone 1 mg/l), the “CALLUS INDUCTION 30 days Leaves (%)” value is reported as 25.3%, the “CALLUS INDUCTION 60 days Leaves (%)” value turned out to be 56.3%, the “CALLUS INDUCTION 30 days Seeds (%)” value is on record as 26.5% and the “CALLUS INDUCTION 60 days Seeds (%)” value worked out at 37.7%. Besides, in assay [4] (hormone 1 mg/l), the “CALLUS INDUCTION 30 days Stems (%)” value was found to be 67.0% and the “CALLUS INDUCTION 60 days Stems (%)” value was 76.3%.

As for `c1ccc(CNc2ncnc3nc[nH]c23)cc1` [BA, benzyladenine], in assay [1] (hormone 0.5 mg/l), the “CALLUS INDUCTION 15 days Leaves (%)” value turned out to be 1.7%, the “CALLUS INDUCTION 30 days Leaves (%)” value amounted to 4.6%, the “CALLUS INDUCTION 15 days Seeds (%)” value is on record as 5.1% and the “CALLUS INDUCTION 30 days Seeds (%)” value is 10.3%. Also, in assay [1] (hormone 0.5 mg/l), the “CALLUS INDUCTION 15 days Stems (%)” value was 0% and the “CALLUS INDUCTION 30 days Stems (%)” value was 0%. Moreover, in assay [1] (hormone 1 mg/l), the “CALLUS INDUCTION 15 days Leaves (%)” value was 0%, the “CALLUS INDUCTION 30 days Leaves (%)” value came out at 4.6%, the “CALLUS INDUCTION 15 days Seeds (%)” value is 4.0% and the “CALLUS INDUCTION 30 days Seeds (%)” value is 13.8%. Besides, in assay [1] (hormone 1 mg/l), the “CALLUS INDUCTION 15 days Stems (%)” value turned out to be 2.5% and the “CALLUS INDUCTION 30 days Stems (%)” value is 15.0%. Moreover, the “suitability for inducing callus from hazel” value in assay [1] (used alone at a concentration of 0.5 and 1 mg/l) is listed as “least suitable for inducing callus from hazel”. The “FORMATION OF YOUNG PLANTS (%) C. avellana” value in assay [2] (hormone 0.5 mg/l) amounted to 13.3%. Further, in assay [2] (hormone 1 mg/l), the “FORMATION OF YOUNG PLANTS (%) C. avellana” value came out at 8.7%. For the same compound, the “FORMATION OF YOUNG PLANTS (%) T. baccata” value in assay [3] (hormone 0.5 mg/l) is given as 0%. Moreover, the “FORMATION OF YOUNG PLANTS (%) T. baccata” value in assay [3] (hormone 1 mg/l) was determined as 0%. Further, in assay [4] (hormone 0.5 mg/l), the “CALLUS INDUCTION 30 days Leaves (%)” value is 2.0%, the “CALLUS INDUCTION 60 days Leaves (%)” value is 4.5%, the “CALLUS INDUCTION 30 days Seeds (%)” value is listed as 6.2% and the “CALLUS INDUCTION 60 days Seeds (%)” value came to 32.7%. Moreover, in assay [4] (hormone 0.5 mg/l), the “CALLUS INDUCTION 30 days Stems (%)” value stood at 2.0% and the “CALLUS INDUCTION 60 days Stems (%)” value was 9.0%. Besides, in assay [4] (hormone 1 mg/l), the “CALLUS INDUCTION 30 days Leaves (%)” value worked out at 2.0%, the “CALLUS INDUCTION 60 days Leaves (%)” value came to 3.0%, the “CALLUS INDUCTION 30 days Seeds (%)” value stood at 0% and the “CALLUS INDUCTION 60 days Seeds (%)” value is recorded as 0%. In addition, in assay [4] (hormone 1 mg/l), the “CALLUS INDUCTION 30 days Stems (%)” value was 2.5% and the “CALLUS INDUCTION 60 days Stems (%)” value stood at 2.8%. Moreover, the “activity in callus induction of taxus cultures” value in assay [4] (taxus cultures, exception stated for callus from seed at 60 days) is on record as “not to be very active”.
